This is an account of results in US9051325B2, “Bicyclic [5,6] imidazo pyrimodone compounds for use in the treatment of diseases or conditions mediated by Lp-PLA2” (GlaxoSmithKline Intellectual Property Development Limited, priority 2013, dated 2015).

Structures are written as SMILES. Where two headings read alike, the source gives them in different places.

One experiment concerns the target T1, Lp-PLA2 in human plasma (Homo sapiens, UniProt Q13093).
T1 construct: from tissue; host or cells: pooled human plasma
T1 sequence (Q13093 22-441): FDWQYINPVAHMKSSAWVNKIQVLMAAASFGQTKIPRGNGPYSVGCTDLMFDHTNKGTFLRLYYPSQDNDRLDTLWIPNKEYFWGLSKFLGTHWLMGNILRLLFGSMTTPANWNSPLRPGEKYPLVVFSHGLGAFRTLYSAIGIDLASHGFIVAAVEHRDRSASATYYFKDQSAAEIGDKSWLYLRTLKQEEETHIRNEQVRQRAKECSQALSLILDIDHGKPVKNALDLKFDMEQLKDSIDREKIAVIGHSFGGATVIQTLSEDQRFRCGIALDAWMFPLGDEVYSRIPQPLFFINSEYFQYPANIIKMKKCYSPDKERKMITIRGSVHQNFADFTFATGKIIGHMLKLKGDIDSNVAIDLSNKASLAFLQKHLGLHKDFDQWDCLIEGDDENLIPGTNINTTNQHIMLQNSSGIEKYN
In words: Lp-PLA2 human plasma assay (Thio-PAF assay). Type of experiment: biochemical. To be noted: pooled human plasma; lower bounds; read-out: pIC50 values in the thio-PAF assay (converted). Put shortly:
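Pooled human plasma preincubated 30 min with compounds, then given 2-thio-PAF substrate with CPM and NEM in 50 mM HEPES pH 7.4, 150 mM NaCl, 1 mM CHAPS. Reaction quenched after 2 min with TFA and read by fluorescence (ex 380/em 485) after 40 min at room temperature; pIC50 from curve fit.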

Experiment [1] deals with T2, recombinant human Lp-PLA2 (Homo sapiens, UniProt Q13093).
T2 sequence (Q13093 22-441): T1 sequence (Q13093 22-441)
In words: Recombinant human Lp-PLA2 assay (rhLp-PLA2, PED6 assay). Type of experiment: biochemical. The procedure, abridged:
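Compounds were preincubated 30 min with 4 nM […] rhLp-PLA2 in 50 mM HEPES pH 7.4, 150 mM NaCl, 1 mM CHAPS, then PED6 substrate […] was added for 20 min at room temperature in the dark. Fluorescence was read at ex 480/em 540, and pIC50 was fitted from 1:3 serial dilutions.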

Where [2] appears, read: lower bounds, read-out: pIC50 values in the PED6 assay (converted).
The mark [3] stands for this setting: read-out: rhLp-PLA2 (PED6 assay) (pIC50) (converted).

As to `CC1(C)Cn2c(cc(OCc3ccc(Oc4cncc(C(F)(F)F)c4)c(F)c3)nc2=O)N1` [Example E41, 7-((3-fluoro-4-((5-(trifluoromethyl)pyridin-3-yl)oxy)benzyl)oxy)-2,2-dimethyl-2,3-dihydroimidazo[1,2-c]pyrimidin-5(1H)-one], the IC50 on Lp-PLA2 in human plasma is at most 100 nM; in experiment [1] (setting [2]), at most 1 nM.
Take `[2H]C([2H])(Oc1cc2n(c(=O)n1)CC(C)(C)N2CC)c1cccc(F)c1F` [Example E102, 7-(dideutero(2,3-difluorobenzyl)oxy)-1-ethyl-2,2-dimethyl-2,3-dihydroimidazo[1,2-c]pyrimidin-5(1H)-one]: the figures for the IC50 (at Lp-PLA2 in human plasma; in experiment [1] (setting [2])) were at most 100 nM and at most 10 nM, respectively.
Taken in the same sequence, the figures for `C[C@@H]1Cn2c(cc(OCc3ccc(F)c(F)c3)nc2=O)N1C` [Example E106, (R)-7-((3,4-difluorobenzyl)oxy)-1,2-dimethyl-2,3-dihydroimidazo[1,2-c]pyrimidin-5(1H)-one] were at most 100 nM and at most 10 nM.
Taken in the same sequence, the figures for `C[C@H]1Cn2c(cc(OCc3ccc(F)c(F)c3)nc2=O)N1C` [Example E7, (S)-7-((3,4-difluorobenzyl)oxy)-1,2-dimethyl-2,3-dihydroimidazo[1,2-c]pyrimidin-5(1H)-one] were at most 100 nM and at most 10 nM.
For `CC1(C)Cn2c(cc(OCc3ccc(Oc4ccc(F)nc4)c(F)c3)nc2=O)N1` [Example E69, 7-((3-fluoro-4-((6-fluoropyridin-3-yl)oxy)benzyl)oxy)-2,2-dimethyl-2,3-dihydroimidazo[1,2-c]pyrimidin-5(1H)-one], the IC50 is at most 100 nM at Lp-PLA2 in human plasma and at most 1 nM in experiment [1] (setting [2]).
Taken in the same sequence, the figures for `CC1Cn2c(cc(OCc3ccc(Oc4ccc(C#N)c(C(F)(F)F)c4)c(F)c3)nc2=O)N1C` (centres unmarked) [Example E3, 4-(4-(((1,2-dimethyl-5-oxo-1,2,3,5-tetrahydroimidazo[1,2-c]pyrimidin-7-yl)oxy)methyl)-2-fluorophenoxy)-2-(trifluoromethyl)benzonitrile] were at most 100 nM and at most 1 nM.
Taken in the same sequence, the figures for `C[C@H]1Cn2c(cc(OCc3cc(F)c(F)c(F)c3)nc2=O)N1C` [Example E108, (S)-1,2-dimethyl-7-((3,4,5-trifluorobenzyl)oxy)-2,3-dihydroimidazo[1,2-c]pyrimidin-5(1H)-one] were at most 100 nM and at most 10 nM.
In the same order, the values of `CN1c2cc(OCc3ccc(F)c(Cl)c3)nc(=O)n2CC1(C)C` [Example E11, 7-((3-chloro-4-fluorobenzyl)oxy)-1,2,2-trimethyl-2,3-dihydroimidazo[1,2-c]pyrimidin-5(1H)-one] are at most 100 nM and at most 1 nM.
As to `C[C@H]1Cn2c(cc(OCc3cc(F)c(Oc4cncc(C(F)(F)F)c4)c(F)c3)nc2=O)N1C` [Example E56, (S)-7-((3,5-difluoro-4-((5-(trifluoromethyl)pyridin-3-yl)oxy)benzyl)oxy)-1,2-dimethyl-2,3-dihydroimidazo[1,2-c]pyrimidin-5(1H)-one], the IC50 at Lp-PLA2 in human plasma was at most 100 nM; in experiment [1] (setting [2]), at most 1 nM; in experiment [1] (setting [3]) it was 0.1 nM.
With `C[C@H]1Cn2c(cc(OCc3ccc(Oc4cncc(C(F)(F)F)c4)c(C#N)c3)nc2=O)N1C` [Example E55, (S)-5-(((1,2-dimethyl-5-oxo-1,2,3,5-tetrahydroimidazo[1,2-c]pyrimidin-7-yl)oxy)methyl)-2-((5-(trifluoromethyl)pyridin-3-yl)oxy)benzonitrile], the IC50 was at most 100 nM on Lp-PLA2 in human plasma and at most 1 nM in experiment [1] (setting [2]).
Turning to `C[C@H]1Cn2c(cc(OCc3cc(F)c(F)c(F)c3)nc2=O)N1` [Example E49, (S)-2-methyl-7-((3,4,5-trifluorobenzyl)oxy)-2,3-dihydroimidazo[1,2-c]pyrimidin-5(1H)-one], the IC50 at Lp-PLA2 in human plasma is at most 100 nM; in experiment [1] (setting [2]) it was at most 10 nM.
In the case of `CN1c2cc(OCc3ccc(Oc4cncc(Cl)c4)c(F)c3)nc(=O)n2CC1(C)C` [Example E63, 7-((4-((5-chloropyridin-3-yl)oxy)-3-fluorobenzyl)oxy)-1,2,2-trimethyl-2,3-dihydroimidazo[1,2-c]pyrimidin-5(1H)-one], the IC50 on Lp-PLA2 in human plasma was at most 100 nM; in experiment [1] (setting [2]), at most 1 nM; in experiment [1] (setting [3]) it was 0.1 nM.
Taken in the same sequence, the figures for `[2H]C([2H])(Oc1cc2n(c(=O)n1)CC(C)(C)N2C(C)C)c1cccc(F)c1F` [Example E105, 7-(dideutero(2,3-difluorobenzyl)oxy)-1-isopropyl-2,2-dimethyl-2,3-dihydroimidazo-[1,2-c]pyrimidin-5(1H)-one] were at most 100 nM, at most 1 nM and 0.631 nM.
With `CC1(C)Cn2c(cc(OCc3ccc(Oc4ccnc(C(F)(F)F)c4)c(F)c3)nc2=O)N1` [Example E38, 7-((3-fluoro-4-((2-(trifluoromethyl)pyridin-4-yl)oxy)benzyl)oxy)-2,2-dimethyl-2,3-dihydroimidazo[1,2-c]pyrimidin-5(1H)-one], the figures for the IC50 (at Lp-PLA2 in human plasma; in experiment [1] (setting [2])) were at most 100 nM and at most 1 nM, respectively.
`CN1c2cc(OCc3ccc(Oc4cnc(C(F)(F)F)nc4)c(F)c3)nc(=O)n2CC1(C)C` [Example E43, 7-((3-fluoro-4-((2-(trifluoromethyl)pyrimidin-5-yl)oxy)benzyl)oxy)-1,2,2-trimethyl-2,3-dihydroimidazo[1,2-c]pyrimidin-5(1H)-one]: the IC50 on Lp-PLA2 in human plasma is at most 100 nM; in experiment [1] (setting [2]), at most 1 nM; in experiment [1] (setting [3]), 0.0501 nM.
Regarding `C[C@H]1Cn2c(cc(OCc3cc(F)c(Oc4ccc(C(F)(F)F)nc4)c(F)c3)nc2=O)N1` [Example E16, (S)-7-((3,5-difluoro-4-((6-(trifluoromethyl)pyridin-3-yl)oxy)benzyl)oxy)-2-methyl-2,3-dihydroimidazo[1,2-c]pyrimidin-5(1H)-one], the IC50 on Lp-PLA2 in human plasma is at most 100 nM; in experiment [1] (setting [2]), at most 1 nM.
As for `CN1c2cc(OCc3ccc(Oc4ccc(Cl)nc4)c(F)c3)nc(=O)n2CC1(C)C` [Example E12, 7-((4-((6-chloropyridin-3-yl)oxy)-3-fluorobenzyl)oxy)-1,2,2-trimethyl-2,3-dihydroimidazo[1,2-c]pyrimidin-5(1H)-one], the IC50 is at most 100 nM at Lp-PLA2 in human plasma, at most 1 nM in experiment [1] (setting [2]) and 0.0316 nM in experiment [1] (setting [3]).
In the same order, the values of `CN1c2cc(OCc3ccc(Oc4cncc(C(F)(F)F)c4)c(F)c3)nc(=O)n2CC1(C)C` [Example E26, 7-((3-fluoro-4-((5-(trifluoromethyl)pyridin-3-yl)oxy)benzyl)oxy)-1,2,2-trimethyl-2,3-dihydroimidazo[1,2-c]pyrimidin-5(1H)-one] are at most 100 nM, at most 1 nM and 0.0158 nM.
Taken in the same sequence, the figures for `CN1c2cc(OCc3ccc(F)c(C#N)c3)nc(=O)n2CC1(C)C` [Example E42, 2-fluoro-5-(((1,2,2-trimethyl-5-oxo-1,2,3,5-tetrahydroimidazo[1,2-c]pyrimidin-7-yl)oxy)methyl)benzonitrile] were at most 100 nM, at most 1 nM and 0.316 nM.
Take `CC1(C)Cn2c(cc(OCc3cc(F)c(Oc4cncc(Cl)c4)c(F)c3)nc2=O)N1` [Example E128, 7-((4-((5-chloropyridin-3-yl)oxy)-3,5-difluorobenzyl)oxy)-2,2-dimethyl-2,3-dihydroimidazo[1,2-c]pyrimidin-5(1H)-one]: the IC50 is at most 100 nM at Lp-PLA2 in human plasma and at most 1 nM in experiment [1] (setting [2]).
In the same order, the values of `N#Cc1cc(COc2cc3n(c(=O)n2)CCN3C2CC2)ccc1Oc1cccc(C(F)(F)F)c1` [Example E18, 5-(((1-cyclopropyl-5-oxo-1,2,3,5-tetrahydroimidazo[1,2-c]pyrimidin-7-yl)oxy)methyl)-2-(3-(trifluoromethyl)phenoxy)benzonitrile] are at most 100 nM and at most 1 nM.
For the molecule `CN1c2cc(OCc3cc(F)c(Oc4cncc(C(F)(F)F)c4)c(F)c3)nc(=O)n2CC1(C)C` [Example E61, 7-((3,5-difluoro-4-((5-(trifluoromethyl)pyridin-3-yl)oxy)benzyl)oxy)-1,2,2-trimethyl-2,3-dihydroimidazo[1,2-c]pyrimidin-5(1H)-one], the values for the IC50 (on Lp-PLA2 in human plasma; in experiment [1] (setting [2]); in experiment [1] (setting [3])) were at most 100 nM, at most 1 nM and 0.126 nM, respectively.
For `C[C@H]1Cn2c(cc(OCc3ccc(Oc4ccnc(C(F)(F)F)c4)c(F)c3)nc2=O)N1` [Example E78, (S)-7-((3-fluoro-4-((2-(trifluoromethyl)pyridin-4-yl)oxy)benzyl)oxy)-2-methyl-2,3-dihydroimidazo[1,2-c]pyrimidin-5(1H)-one], the IC50 was at most 100 nM at Lp-PLA2 in human plasma and at most 1 nM in experiment [1] (setting [2]).
Taken in the same sequence, the figures for `C[C@H]1Cn2c(cc(OCc3ccc(Oc4cnc(C(F)(F)F)nc4)c(F)c3)nc2=O)N1C` [Example E40, (S)-7-((3-fluoro-4-((2-(trifluoromethyl)pyrimidin-5-yl)oxy)benzyl)oxy)-1,2-dimethyl 2,3-dihydroimidazo[1,2-c]pyrimidin-5(1H)-one] were at most 100 nM and at most 10 nM.
